Laboratory results taken from patent publication US20030017186A1, “Carboxylic acid fluorides as pesticides” (priority 1999, published 2003).

How the values were obtained:
[1] = system: wood pests (house longhorn beetle, common furniture beetle); assay: Fumigation test, wood pests; type: in vivo, Hylotrupes bajulus, Anobium punctatum
Excerpt: (§1) The test organisms, separated by species, were placed into a glass vessel measuring 30 cm×30 cm×60 cm, which was sealed with a glass lid so as to be airtight. The adults and the larvae of the mealworm beetle (Tenebrio molitor) and the broad-horned flour beetle (Gnathocerus cornutus) were placed into small glass vessels approximately 5 cm in diameter, which were closed with a gauze lid and in which they could freely move about. The larvae of the rice weevil had burrowed into seeds of grain. The wood pest larvae were inserted into small blocks of wood measuring 5 cm×2.5 cm×2 cm. The openings were sealed with wads of cotton wool. Only one each of the larvae of the house longhorn beetle (Hylotrupes bajulus) was inserted into a piece of wood, while 6-8 larvae of the common furniture beetle (Anobium punctatum) were inserted into each piece of wood.
(§2) The respective gas was then introduced into the fumigation vessel through a gas line from a gas tank that contained the specified amount of gas. After a defined time period, the fumigation vessel was purged with compressed air. The discharged gas was purified by an attached gas scrubber.
(§3) The beetles were observed until they died. This point was recorded for each species. The larvae of the wood pests as well as the larvae of the rice weevil (Sitophilus oryzae) had to be picked out of the wood or the grain to check their condition. If any of the animals were still alive, the wooden test blocks remaining in the vessel were fumigated again and were reexamined after the corresponding time span had elapsed. The same number of animals in the untreated control was also checked at each point.
(§4) The vitality of the animals was checked at certain time intervals. The beetles could be observed through the fumigation vessel. This was also true for the larvae of the mealworm beetle and the broad-horned flour beetle. The wooden test blocks of the wood pest larvae were opened with hammer and chisel. Tweezers were used to pull the rice weevil larvae out of the grain seeds. The exact time intervals and the number of the evaluated pests were documented in the test results.

[2] = system: House longhorn beetle (Hylotrupes bajulus) larvae; assay: Fumigation test in glass vessel, house longhorn beetle larvae in wood blocks; type: in vivo; settings: HYLOBA larvae in wood blocks
[3] = system: Mealworm beetle (Tenebrio molitor); assay: Fumigation test in glass vessel, mealworm beetles; type: in vivo; settings: TENEMO beetles
[4] = system: Rice weevil (Sitophilus oryzae) larvae; assay: Fumigation test in glass vessel, rice weevil larvae in grain seeds; type: in vivo; settings: SITTOR larvae in grain seeds
Excerpt: a2) Rice weevil (Sitophilus oryzae)=SITTOR
as §1, §2, §3, §4

[5] = system: Broad-horned flour beetle (Gnathocerus cornutus); assay: Fumigation test in glass vessel, broad-horned flour beetles; type: in vivo; settings: GNATCO beetles
[6] = Example 5, ACF 50.6/48.2/51.4 g/m^3, SF 47.4/44.6/41 g/m^3 (1st/2nd/3rd fumigation), 23/23/22° C.
[7] = Example 7, ACF 53.0/54.6/0 g/m^3, second gas (SF) 43.6/41.4/39.8 g/m^3 (1st/2nd/3rd fumigation), 20.0/20.2/19.8 C.
[8] = Example 4, gas 36.5 g/m^3, 19.3° C., 54% rel. air humidity

CC(=O)F [ACF, acetyl fluoride]
Effectiveness against wood pests ([1]; Conclusion, especially at temperatures in excess of 20° C.): very effective | Condition of the larvae of the wood pests after 24 hours ([1]; Example 4, house longhorn beetle larvae and 2 common furniture beetle larvae, gas 36.5 g/m^3, 19.3° C., evaluated only after 24 hours): dead | Number alive, 1 hr. after Start of Fumigation [2, 6]: 0 | Number alive, 3 hrs. after Start of Fumigation [2, 6]: 1 | Number alive, 6 hrs after Start of Fumigation [2, 6]: 0 | Number dead, 1 hr. after Start of Fumigation [2, 6]: 4 | Number dead, 3 hrs. after Start of Fumigation [2, 6]: 2 | Number dead, 6 hrs after Start of Fumigation [2, 6]: 7 | Number alive, 1 hr. after 1st Fumigation [2, 7]: 2 | Number alive, 3 hrs. after 1st Fumigation [2, 7]: 0 | Number dead, 1 hr. after 1st Fumigation [2, 7]: 3 | Number dead, 3 hrs. after 1st Fumigation [2, 7]: 10 | Number alive, 1 hr. after Start of Fumigation [3, 8]: 0 | Number dead, 1 hr. after Start of Fumigation [3, 8]: 10 | Number alive, 30 min. after Start of Fumigation [3, 6]: 0 | Number dead, 30 min. after Start of Fumigation [3, 6]: 10 | Number alive, 30 min. after 1st Fumigation [3, 7]: 0 | Number dead, 30 min. after 1st Fumigation [3, 7]: 10 | Number alive, 24 hrs. after Start of Fumigation [4, 8]: 0 | Number dead, 24 hrs. after Start of Fumigation [4, 8]: 25 | Number alive, 1 hr. after Start of Fumigation [4, 6]: 0 | Number dead, 1 hr. after Start of Fumigation [4, 6]: 15 | Number alive, 1 hr. after Start of Fumigation [5, 8]: 13 | Number alive, 2 hrs. after Start of Fumigation [5, 8]: 3 | Number alive, 12 hrs. after Start of Fumigation [5, 8]: 0 | Number dead, 1 hr. after Start of Fumigation [5, 8]: 12 | Number dead, 2 hrs. after Start of Fumigation [5, 8]: 22 | Number dead, 12 hrs. after Start of Fumigation [5, 8]: 25 | Number alive, 30 min. after Start of Fumigation [5, 6]: 0 | Number dead, 30 min. after Start of Fumigation [5, 6]: 15 | Number alive, 30 min. after 1st Fumigation [5, 7]: 0 | Number dead, 30 min. after 1st Fumigation [5, 7]: 15
